# Source: ChEMBL document CHEMBL5291721, “A preclinical secondary pharmacology resource illuminates target-adverse drug reaction associations of marketed drugs” (Nat Commun, 2023)
# Assays:
# [1] = molecular target: T1, Alpha-1A adrenergic receptor (Homo sapiens, UniProt P35348)
# T1 sequence (P35348 whole entry): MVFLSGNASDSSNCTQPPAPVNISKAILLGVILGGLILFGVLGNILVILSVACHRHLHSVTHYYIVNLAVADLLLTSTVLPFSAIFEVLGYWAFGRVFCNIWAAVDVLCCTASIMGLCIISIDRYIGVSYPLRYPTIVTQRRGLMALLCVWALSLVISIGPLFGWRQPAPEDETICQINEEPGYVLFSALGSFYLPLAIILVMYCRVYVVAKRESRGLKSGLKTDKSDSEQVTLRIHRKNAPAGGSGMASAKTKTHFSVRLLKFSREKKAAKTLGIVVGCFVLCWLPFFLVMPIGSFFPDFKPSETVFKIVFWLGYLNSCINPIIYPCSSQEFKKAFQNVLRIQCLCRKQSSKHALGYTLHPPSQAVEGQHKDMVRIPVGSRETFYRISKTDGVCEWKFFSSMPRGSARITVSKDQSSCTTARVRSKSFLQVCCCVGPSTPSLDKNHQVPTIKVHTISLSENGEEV
# [2] = molecular target: T2, Peroxisome proliferator-activated receptor gamma (Homo sapiens, UniProt P37231); format: functional
# T2 sequence (P37231 whole entry): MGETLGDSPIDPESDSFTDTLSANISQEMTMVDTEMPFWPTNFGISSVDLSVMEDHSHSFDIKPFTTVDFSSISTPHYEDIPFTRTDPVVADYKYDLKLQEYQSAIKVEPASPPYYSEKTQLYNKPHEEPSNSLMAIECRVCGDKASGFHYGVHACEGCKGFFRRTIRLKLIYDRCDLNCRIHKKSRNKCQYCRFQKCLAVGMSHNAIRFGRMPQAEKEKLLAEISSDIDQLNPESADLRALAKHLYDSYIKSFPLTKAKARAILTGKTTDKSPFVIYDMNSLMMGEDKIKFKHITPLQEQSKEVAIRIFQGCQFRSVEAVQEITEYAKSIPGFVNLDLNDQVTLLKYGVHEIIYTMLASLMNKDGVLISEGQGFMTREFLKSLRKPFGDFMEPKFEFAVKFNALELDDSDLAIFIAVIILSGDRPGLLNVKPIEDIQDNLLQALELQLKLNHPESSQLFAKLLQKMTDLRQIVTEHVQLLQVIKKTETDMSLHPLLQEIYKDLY
# [3] = molecular target: Beta-3 adrenergic receptor (Homo sapiens, UniProt P13945)
# [4] = molecular target: Voltage-dependent L-type calcium channel subunit alpha-1C (Rattus norvegicus, UniProt P22002); format: functional
# [5] = molecular target: T3, Neuropeptide Y receptor type 2 (Homo sapiens, UniProt P49146)
# T3 sequence (P49146 whole entry): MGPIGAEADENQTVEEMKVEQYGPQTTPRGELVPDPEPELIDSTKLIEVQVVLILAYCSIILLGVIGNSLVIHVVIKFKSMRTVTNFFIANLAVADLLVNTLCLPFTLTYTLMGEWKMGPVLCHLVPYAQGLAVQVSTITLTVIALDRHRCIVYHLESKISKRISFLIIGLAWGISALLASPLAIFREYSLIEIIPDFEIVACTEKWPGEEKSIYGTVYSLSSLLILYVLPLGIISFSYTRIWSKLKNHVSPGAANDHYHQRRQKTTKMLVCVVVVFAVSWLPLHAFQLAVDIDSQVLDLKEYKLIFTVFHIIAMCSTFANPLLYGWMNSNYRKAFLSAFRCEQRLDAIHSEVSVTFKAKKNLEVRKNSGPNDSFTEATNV
# [6] = molecular target: T1, Alpha-1A adrenergic receptor; remark: listed apart in the source
# [7] = molecular target: Gamma-aminobutyric acid receptor subunit alpha-1/alpha-2/beta-2/gamma-2 (Homo sapiens, UniProt P14867+P18507+P47869+P47870); format: functional, cell-based
# Histamine H2 receptor = Histamine H2 receptor (Homo sapiens, UniProt P25021)
# [8] = molecular target: T2, Peroxisome proliferator-activated receptor gamma; format: functional; remark: listed apart in the source
# Histamine H1 receptor = Histamine H1 receptor (Homo sapiens, UniProt P35367)
# Thromboxane A2 receptor = molecular target: T4, Thromboxane A2 receptor (Homo sapiens, UniProt P21731); format: functional
# T4 sequence (P21731 whole entry): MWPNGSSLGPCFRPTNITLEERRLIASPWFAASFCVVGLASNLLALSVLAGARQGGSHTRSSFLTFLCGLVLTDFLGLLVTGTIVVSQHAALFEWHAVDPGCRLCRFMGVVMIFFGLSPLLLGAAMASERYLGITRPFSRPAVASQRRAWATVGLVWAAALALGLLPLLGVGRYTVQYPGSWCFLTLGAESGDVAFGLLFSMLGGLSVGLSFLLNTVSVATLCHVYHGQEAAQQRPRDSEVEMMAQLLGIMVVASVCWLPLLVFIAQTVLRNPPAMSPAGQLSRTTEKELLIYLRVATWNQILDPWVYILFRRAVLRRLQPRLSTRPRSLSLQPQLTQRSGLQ
# Adenosine receptor A1 = molecular target: T5, Adenosine receptor A1 (Homo sapiens, UniProt P30542)
# T5 sequence (P30542 whole entry): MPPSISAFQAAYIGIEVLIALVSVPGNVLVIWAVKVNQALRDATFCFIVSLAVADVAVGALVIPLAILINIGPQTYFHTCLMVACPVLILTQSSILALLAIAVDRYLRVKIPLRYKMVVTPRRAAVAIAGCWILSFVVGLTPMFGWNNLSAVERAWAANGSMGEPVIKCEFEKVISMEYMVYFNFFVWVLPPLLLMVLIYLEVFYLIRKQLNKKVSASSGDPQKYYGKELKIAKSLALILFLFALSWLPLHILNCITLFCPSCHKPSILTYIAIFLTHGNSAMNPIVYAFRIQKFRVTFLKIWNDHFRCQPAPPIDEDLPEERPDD
# Also: assay procedure not described here.
# Chain of Gamma-aminobutyric acid receptor subunit alpha-1/alpha-2/beta-2/gamma-2 (P14867 whole entry): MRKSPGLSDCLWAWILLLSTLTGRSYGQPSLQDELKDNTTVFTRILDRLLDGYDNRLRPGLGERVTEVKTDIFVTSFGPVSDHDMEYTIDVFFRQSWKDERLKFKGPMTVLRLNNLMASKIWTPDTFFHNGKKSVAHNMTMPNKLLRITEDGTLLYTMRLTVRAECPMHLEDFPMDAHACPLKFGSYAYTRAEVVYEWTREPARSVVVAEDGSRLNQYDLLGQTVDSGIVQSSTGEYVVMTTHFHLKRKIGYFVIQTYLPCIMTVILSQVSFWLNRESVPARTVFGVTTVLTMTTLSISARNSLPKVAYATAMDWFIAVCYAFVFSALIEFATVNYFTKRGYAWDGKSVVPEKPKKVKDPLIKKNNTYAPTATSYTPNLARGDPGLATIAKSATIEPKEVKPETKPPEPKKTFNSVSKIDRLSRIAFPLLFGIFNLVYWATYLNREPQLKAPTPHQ
# Chain of Gamma-aminobutyric acid receptor subunit alpha-1/alpha-2/beta-2/gamma-2 (P47870 whole entry): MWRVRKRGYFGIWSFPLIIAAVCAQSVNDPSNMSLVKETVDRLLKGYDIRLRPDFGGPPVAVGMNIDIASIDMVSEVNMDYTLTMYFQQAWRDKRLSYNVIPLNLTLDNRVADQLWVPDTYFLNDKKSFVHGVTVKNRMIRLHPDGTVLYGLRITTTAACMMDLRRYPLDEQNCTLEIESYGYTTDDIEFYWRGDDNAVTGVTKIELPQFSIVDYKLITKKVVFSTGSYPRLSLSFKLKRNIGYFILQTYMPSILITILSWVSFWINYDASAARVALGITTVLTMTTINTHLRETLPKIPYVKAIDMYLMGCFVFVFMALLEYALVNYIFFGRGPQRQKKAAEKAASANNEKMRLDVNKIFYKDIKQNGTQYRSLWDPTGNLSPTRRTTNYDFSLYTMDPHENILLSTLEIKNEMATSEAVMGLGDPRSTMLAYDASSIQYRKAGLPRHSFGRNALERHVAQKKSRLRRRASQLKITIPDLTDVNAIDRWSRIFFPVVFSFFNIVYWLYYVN
# Chain of Gamma-aminobutyric acid receptor subunit alpha-1/alpha-2/beta-2/gamma-2 (P18507 whole entry): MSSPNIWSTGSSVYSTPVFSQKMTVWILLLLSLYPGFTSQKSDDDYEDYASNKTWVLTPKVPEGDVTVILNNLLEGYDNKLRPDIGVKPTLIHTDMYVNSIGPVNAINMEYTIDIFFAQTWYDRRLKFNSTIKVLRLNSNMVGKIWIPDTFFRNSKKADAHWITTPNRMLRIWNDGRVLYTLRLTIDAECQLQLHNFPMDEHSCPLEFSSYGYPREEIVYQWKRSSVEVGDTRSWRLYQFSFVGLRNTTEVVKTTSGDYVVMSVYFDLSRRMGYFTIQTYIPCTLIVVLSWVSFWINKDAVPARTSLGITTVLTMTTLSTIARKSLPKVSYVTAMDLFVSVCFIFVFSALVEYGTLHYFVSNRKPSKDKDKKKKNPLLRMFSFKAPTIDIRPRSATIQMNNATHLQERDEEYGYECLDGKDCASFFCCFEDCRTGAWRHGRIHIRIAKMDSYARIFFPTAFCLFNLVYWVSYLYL
# Chain of Gamma-aminobutyric acid receptor subunit alpha-1/alpha-2/beta-2/gamma-2 (P47869 whole entry): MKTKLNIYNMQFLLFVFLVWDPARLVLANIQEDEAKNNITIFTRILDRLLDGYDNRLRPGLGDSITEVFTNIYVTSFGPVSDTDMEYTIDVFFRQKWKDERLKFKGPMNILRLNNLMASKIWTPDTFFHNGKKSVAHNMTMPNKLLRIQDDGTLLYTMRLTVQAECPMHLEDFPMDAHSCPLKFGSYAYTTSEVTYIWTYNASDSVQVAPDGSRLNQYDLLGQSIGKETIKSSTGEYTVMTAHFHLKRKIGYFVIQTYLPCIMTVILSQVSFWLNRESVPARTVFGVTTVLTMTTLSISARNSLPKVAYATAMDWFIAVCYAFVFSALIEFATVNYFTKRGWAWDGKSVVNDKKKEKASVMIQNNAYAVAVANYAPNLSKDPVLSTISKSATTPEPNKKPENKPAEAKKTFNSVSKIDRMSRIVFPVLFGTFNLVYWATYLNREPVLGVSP
# Chain of Histamine H1 receptor (P35367 whole entry): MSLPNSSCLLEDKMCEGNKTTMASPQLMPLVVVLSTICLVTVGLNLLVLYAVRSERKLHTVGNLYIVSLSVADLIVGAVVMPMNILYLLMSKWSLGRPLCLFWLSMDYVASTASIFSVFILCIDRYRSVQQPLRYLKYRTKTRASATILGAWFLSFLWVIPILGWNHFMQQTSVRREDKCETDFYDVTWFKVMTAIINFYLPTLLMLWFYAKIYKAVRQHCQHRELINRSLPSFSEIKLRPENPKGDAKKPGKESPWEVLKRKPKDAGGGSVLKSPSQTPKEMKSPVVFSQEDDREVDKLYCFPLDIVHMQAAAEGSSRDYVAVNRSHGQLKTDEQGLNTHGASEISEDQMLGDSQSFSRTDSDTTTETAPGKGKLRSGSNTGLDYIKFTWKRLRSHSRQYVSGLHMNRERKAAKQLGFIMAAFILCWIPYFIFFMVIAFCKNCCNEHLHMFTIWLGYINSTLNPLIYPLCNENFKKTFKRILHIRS
# Chain of Histamine H2 receptor (P25021 whole entry): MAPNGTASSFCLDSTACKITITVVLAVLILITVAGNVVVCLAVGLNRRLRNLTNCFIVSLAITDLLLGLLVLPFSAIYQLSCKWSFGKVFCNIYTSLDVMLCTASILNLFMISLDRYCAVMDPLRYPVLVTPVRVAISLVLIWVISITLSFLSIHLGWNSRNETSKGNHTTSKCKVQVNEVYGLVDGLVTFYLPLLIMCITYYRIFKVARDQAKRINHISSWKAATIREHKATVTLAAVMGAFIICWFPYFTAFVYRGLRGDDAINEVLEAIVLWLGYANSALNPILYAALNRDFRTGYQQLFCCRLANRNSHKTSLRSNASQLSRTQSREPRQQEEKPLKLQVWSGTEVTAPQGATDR
# Chain of Voltage-dependent L-type calcium channel subunit alpha-1C (P22002 whole entry): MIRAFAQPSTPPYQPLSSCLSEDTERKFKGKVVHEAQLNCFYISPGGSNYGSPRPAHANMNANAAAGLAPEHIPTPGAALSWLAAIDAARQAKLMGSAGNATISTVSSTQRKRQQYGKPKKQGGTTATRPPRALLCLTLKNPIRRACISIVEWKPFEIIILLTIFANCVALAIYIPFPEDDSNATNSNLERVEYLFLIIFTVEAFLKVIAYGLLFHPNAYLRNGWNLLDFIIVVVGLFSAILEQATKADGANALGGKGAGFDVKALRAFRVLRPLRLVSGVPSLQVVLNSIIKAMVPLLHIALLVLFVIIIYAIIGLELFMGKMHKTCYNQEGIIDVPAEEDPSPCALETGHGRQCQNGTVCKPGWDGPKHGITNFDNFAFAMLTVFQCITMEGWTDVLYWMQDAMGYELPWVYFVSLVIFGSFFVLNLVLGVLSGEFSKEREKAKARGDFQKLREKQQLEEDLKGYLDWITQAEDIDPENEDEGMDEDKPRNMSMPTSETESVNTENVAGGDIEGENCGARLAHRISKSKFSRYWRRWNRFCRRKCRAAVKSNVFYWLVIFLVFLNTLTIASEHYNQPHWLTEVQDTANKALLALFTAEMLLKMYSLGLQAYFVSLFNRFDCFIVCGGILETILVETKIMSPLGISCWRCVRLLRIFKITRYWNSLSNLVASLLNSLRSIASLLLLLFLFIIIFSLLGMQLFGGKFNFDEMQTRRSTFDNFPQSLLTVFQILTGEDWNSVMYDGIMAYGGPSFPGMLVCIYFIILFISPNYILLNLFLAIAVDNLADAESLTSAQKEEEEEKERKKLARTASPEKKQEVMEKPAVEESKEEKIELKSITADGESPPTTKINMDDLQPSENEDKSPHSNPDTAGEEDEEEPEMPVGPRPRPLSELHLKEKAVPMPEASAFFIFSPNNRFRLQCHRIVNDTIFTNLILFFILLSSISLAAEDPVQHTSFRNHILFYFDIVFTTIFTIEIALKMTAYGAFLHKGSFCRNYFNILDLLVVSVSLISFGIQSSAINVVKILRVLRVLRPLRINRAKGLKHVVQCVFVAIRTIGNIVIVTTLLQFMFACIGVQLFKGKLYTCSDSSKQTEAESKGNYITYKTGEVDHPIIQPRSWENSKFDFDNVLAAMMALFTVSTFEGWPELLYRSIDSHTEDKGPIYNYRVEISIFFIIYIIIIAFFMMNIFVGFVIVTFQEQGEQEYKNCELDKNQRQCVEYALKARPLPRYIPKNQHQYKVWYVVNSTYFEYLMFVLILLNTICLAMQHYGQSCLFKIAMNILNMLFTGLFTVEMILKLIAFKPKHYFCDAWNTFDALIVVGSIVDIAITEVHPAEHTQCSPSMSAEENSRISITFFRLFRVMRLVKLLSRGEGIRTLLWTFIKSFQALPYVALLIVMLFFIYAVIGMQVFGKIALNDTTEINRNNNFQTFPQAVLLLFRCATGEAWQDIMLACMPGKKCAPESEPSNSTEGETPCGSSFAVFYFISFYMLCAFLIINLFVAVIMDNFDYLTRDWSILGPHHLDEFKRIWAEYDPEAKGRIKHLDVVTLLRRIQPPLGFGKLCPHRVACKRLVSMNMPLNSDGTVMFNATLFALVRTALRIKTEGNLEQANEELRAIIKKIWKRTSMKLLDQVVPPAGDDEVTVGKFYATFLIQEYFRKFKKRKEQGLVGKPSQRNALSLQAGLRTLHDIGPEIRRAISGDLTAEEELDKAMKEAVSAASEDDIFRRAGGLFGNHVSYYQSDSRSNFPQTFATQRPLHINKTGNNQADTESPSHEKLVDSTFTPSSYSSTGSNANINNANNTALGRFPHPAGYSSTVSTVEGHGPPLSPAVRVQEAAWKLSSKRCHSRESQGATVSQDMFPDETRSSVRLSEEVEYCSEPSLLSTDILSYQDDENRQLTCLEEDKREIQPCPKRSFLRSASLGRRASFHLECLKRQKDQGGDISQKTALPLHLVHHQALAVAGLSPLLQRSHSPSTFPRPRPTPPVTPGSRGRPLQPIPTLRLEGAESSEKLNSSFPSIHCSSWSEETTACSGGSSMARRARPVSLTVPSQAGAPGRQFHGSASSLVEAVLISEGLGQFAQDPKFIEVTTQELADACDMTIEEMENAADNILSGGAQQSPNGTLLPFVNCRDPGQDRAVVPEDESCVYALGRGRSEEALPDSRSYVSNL
Compound,AC50 [1],AC50 [2],AC50 [3],AC50 [4],AC50 [5],AC50 [6],AC50 [7],AC50 (Histamine H2 receptor),AC50 [8],AC50 (Histamine H1 receptor),AC50 (Thromboxane A2 receptor),AC50 (Adenosine receptor A1)
CCOc1nc2cccc(C(=O)O)c2n1Cc1ccc(-c2ccccc2-c2nnn[nH]2)cc1,> 10 µM,18 µM,> 30 µM,> 10 µM,> 30 µM,> 10 µM,> 30 µM,> 10 µM,> 30 µM,–,–,–
CCCc1nc2c(C)cc(-c3nc4ccccc4n3C)cc2n1Cc1ccc(-c2ccccc2C(=O)O)cc1,> 10 µM,19 µM,> 30 µM,> 30 µM,> 30 µM,> 10 µM,> 30 µM,> 10 µM,> 30 µM,> 30 µM,–,–
CCOc1cc([C@@H](CS(C)(=O)=O)N2C(=O)c3cccc(NC(C)=O)c3C2=O)ccc1OC,–,> 30 µM,–,–,–,–,> 30 µM,–,> 30 µM,> 30 µM,> 30 µM,–
CC1(C)S[C@@H]2[C@H](NC(=O)C(C(=O)O)c3ccccc3)C(=O)N2[C@H]1C(=O)O (some centres not stated) [CARBENICILLIN],–,> 30 µM,–,–,–,–,> 30 µM,–,> 30 µM,> 30 µM,–,–
Cc1nnc(SCC2=C(C(=O)O)N3C(=O)[C@@H](NC(=O)Cn4cnnn4)[C@H]3SC2)s1 [CEFAZOLIN],–,> 300 µM,–,–,–,–,> 2400 µM,–,> 300 µM,> 300 µM,> 300 µM,–
CC(C)(O/N=C(\C(=O)N[C@@H]1C(=O)N2C(C(=O)[O-])=C(C[n+]3ccccc3)CS[C@H]12)c1csc(N)n1)C(=O)O [CEFTAZIDIME],–,–,–,–,–,–,> 2400 µM,–,> 300 µM,> 300 µM,> 300 µM,–
CC(C)NC(=N)NC(=N)Nc1ccc(Cl)c(Cl)c1 [CHLORPROGUANIL],–,–,–,–,–,–,> 30 µM,–,–,> 30 µM,–,> 30 µM
C[N+](C)(C)CCOP(=O)(O)OP(=O)([O-])OC[C@H]1O[C@@H](n2ccc(N)nc2=O)[C@H](O)[C@@H]1O [CITICOLINE],–,–,–,–,–,–,> 30 µM,–,–,> 30 µM,–,> 30 µM
Clc1ccc(Cn2c(CN3CCCC3)nc3ccccc32)cc1 [CLEMIZOLE],–,> 30 µM,–,–,–,–,> 30 µM,–,> 30 µM,0.0034 µM,> 10 µM,–
CCC(=O)O[C@]1(C(=O)CCl)[C@@H](C)C[C@H]2[C@@H]3CCC4=CC(=O)C=C[C@]4(C)[C@@]3(F)[C@@H](O)C[C@@]21C [CLOBETASOL PROPIONATE],–,18 µM,–,–,–,–,> 30 µM,–,> 30 µM,–,–,–
CNC[C@H](O)c1ccc(O)c(O)c1 [EPINEPHRINE],–,> 30 µM,–,–,–,–,> 30 µM,–,> 30 µM,–,–,–
Cc1onc(-c2c(F)cccc2Cl)c1C(=O)N[C@@H]1C(=O)N2[C@@H]1SC(C)(C)[C@@H]2C(=O)O [FLOXACILLIN],–,> 30 µM,–,–,–,–,> 30 µM,–,> 30 µM,> 30 µM,> 30 µM,–
C#C[C@]1(O)C=C[C@H]2[C@@H]3CCC4=CC(=O)CC[C@@H]4[C@H]3CC[C@@]21CC [GESTODENE],–,–,–,–,–,–,–,–,–,–,–,> 30 µM
COc1ccccc1OC1(C)OC(=O)c2ccccc2O1 (configuration not stated) [GUAIMESAL],–,–,–,–,–,–,–,–,–,–,–,> 30 µM
C[N+](C)(CCCCCC[N+](C)(C)C1c2ccccc2-c2ccccc21)C1c2ccccc2-c2ccccc21 [HEXAFLUORENIUM],–,–,–,–,–,–,–,–,–,–,–,> 30 µM
COc1cc(C(C)=O)ccc1OCCCN1CCC(c2noc3cc(F)ccc23)CC1 [ILOPERIDONE],–,> 30 µM,–,–,–,0.0018 µM,> 30 µM,–,> 30 µM,–,–,> 30 µM
CC(CN1c2ccccc2Sc2ccccc21)N(C)C (configuration not stated) [PROMETHAZINE],0.0996 µM,–,> 30 µM,> 10 µM,> 30 µM,0.162 µM,–,0.0536 µM,–,–,–,> 30 µM
S=P(N1CC1)(N1CC1)N1CC1 [THIOTEPA],–,> 30 µM,–,–,–,–,> 30 µM,–,> 30 µM,–,> 10 µM,–
CC(C)C[C@H](NC(=O)[C@@H](O)[C@H](N)Cc1ccccc1)C(=O)O [UBENIMEX],–,–,–,> 30 µM,–,–,–,–,–,–,–,> 30 µM
O=C1Cc2cc(CCN3CCN(c4nsc5ccccc45)CC3)c(Cl)cc2N1 [ZIPRASIDONE],0.0275 µM,–,> 30 µM,> 10 µM,> 30 µM,0.0317 µM,–,0.596 µM,–,–,–,> 30 µM
